# Measurements published in patent US20260234187A1, “ANTIMICROBIAL PEPTIDES” (MATERIAS S.R.L., priority 2020, published 2026).
# Like-named read-outs stand apart in the source and are kept apart here. Where no end group is shown, it is not given here.
# Columns and labels:
# [1] = kinetics of structural rearrangements by Circular Dichroism, secondary structure by BESTSEL and Dichroweb; format: physicochemical; details: sodium acetate pH 4
# Experimental: The structural and conformational characterization of the RiLK1 peptide was assessed by investigating its secondary structure by Circular Dichroism (CD) spectroscopy in the absence and in the presence of Sodium Dodecyl Sulfate (SDS) at a concentration of 3 mM to mimic the condition of the bacterial cell membrane.
# The CD assays were performed with a Jasco J-810 spectropolarimeter equipped with a thermostated cuvette holder. The samples were loaded into a 0.1 cm long quartz cuvette (Hellma Analytics) and the spectrum was analysed in the range from 190 nm to 250 nm at room temperature for each sample.
# The CD spectra were acquired at a scan rate of 20 nm/min, and the recorded results represent an average of 5 scans.
# The mean residue ellipticity ([θ], degrees cm^2 dmol^−1) was calculated using the following equation: […]
# The secondary structure was calculated through the DICHROWEB site (Whitmore L and Wallace B A, 2004, Nucleic Acids Research 32:668-673, Whitmore L and Wallace B A, 2008, Biopolymers 89:392-400, Lobley et al, 2002, Bioinformatics 18:211-212), using three different algorithms (SELCON3, CONTIN-LL and CDSSTR) (Sreerema N and Woody R W, 1993, Analytical Biochemistry 287:252-260) and selecting the SMP180 protein as the comparison data set, which includes a high number of spectra of soluble and membrane proteins (Abdul-Gader A et al, 2011, Bioinformatics 27:1630-1636).
# The secondary structure was also calculated through the BETSEL site (Micsonai A. et al, 2018, Nucleic Acids Res. 46: W315-W322; Micsonai A. et al, 2015, Proc Natl Acad Sci USA; 112: E3095-E3103).
# The kinetics of the structural rearrangements of the RiLK1 peptide were assessed over 24 hours by Circular Dichroism (CD) spectroscopy and fluorescence spectroscopy.
# 0.1 g/L of RiLK1 peptide was dissolved in 10 mM sodium acetate buffer at pH 4, in the absence or presence of 3 mM SDS.
# [2] = format: physicochemical; parameters: α-helix (Bestsel) / β-sheet (Bestsel) / Random (Bestsel): unit not given here; details: 3 mM SDS; for Random (CONTIN-LL) / α-helix (CONTIN-LL) / β-sheet (CONTIN-LL): after a 24-hour incubation
# Experimental: 0.1 g/L of RiLK1 peptide was dissolved in 10 mM concentration solutions at different pHs, in particular: glycine-HCL buffer (pH 2); sodium acetate buffer (pH 4); tris-HCL buffer (pH 7); glycine-NaOH buffer (pH 9). After a 1-hour incubation at 25° C., samples of each solution containing 3 mM SDS were prepared.
substance,measurement,setting,value
"RLKWVRIWRR-NH2 [RiLK1, RLKWVRIWRR]",Random (Bestsel),[1]; t = 0 w/ 3 mM SDS,41.3%
same,Random (DichroWeb CONTIN-LL),[1]; t = 0 w/ 3 mM SDS,40%
same,α-helix (Bestsel),[1]; t = 0 w/ 3 mM SDS,7.4%
same,α-helix (DichroWeb CONTIN-LL),[1]; t = 0 w/ 3 mM SDS,22%
same,β-sheet (Bestsel),[1]; t = 0 w/ 3 mM SDS,51.4%
same,β-sheet (DichroWeb CONTIN-LL),[1]; t = 0 w/ 3 mM SDS,38%
same,Random (Bestsel),[1]; t = 5 min w/ 3 mM SDS,42.2%
same,Random (DichroWeb CONTIN-LL),[1]; t = 5 min w/ 3 mM SDS,36%
same,α-helix (Bestsel),[1]; t = 5 min w/ 3 mM SDS,4.4%
same,α-helix (DichroWeb CONTIN-LL),[1]; t = 5 min w/ 3 mM SDS,22%
same,β-sheet (Bestsel),[1]; t = 5 min w/ 3 mM SDS,53.4%
same,β-sheet (DichroWeb CONTIN-LL),[1]; t = 5 min w/ 3 mM SDS,42%
same,Random (Bestsel),[1]; t = 30 min w/ 3 mM SDS,40.3%
same,Random (DichroWeb CONTIN-LL),[1]; t = 30 min w/ 3 mM SDS,37%
same,α-helix (Bestsel),[1]; t = 30 min w/ 3 mM SDS,11%
same,α-helix (DichroWeb CONTIN-LL),[1]; t = 30 min w/ 3 mM SDS,25%
same,β-sheet (Bestsel),[1]; t = 30 min w/ 3 mM SDS,48.7%
same,β-sheet (DichroWeb CONTIN-LL),[1]; t = 30 min w/ 3 mM SDS,38%
same,Random (DichroWeb CONTIN-LL),[1]; t = 1 h (60 min) w/ 3 mM SDS,39%
same,α-helix (DichroWeb CONTIN-LL),[1]; t = 1 h (60 min) w/ 3 mM SDS,23%
same,β-sheet (DichroWeb CONTIN-LL),[1]; t = 1 h (60 min) w/ 3 mM SDS,38%
same,Random (Bestsel),[1]; t = 1 h w/ 3 mM SDS,39.1%
same,α-helix (Bestsel),[1]; t = 1 h w/ 3 mM SDS,9.8%
same,β-sheet (Bestsel),[1]; t = 1 h w/ 3 mM SDS,51.1%
same,Random (DichroWeb CONTIN-LL),[1]; t = 5 h (300 min) w/ 3 mM SDS,38%
same,α-helix (DichroWeb CONTIN-LL),[1]; t = 5 h (300 min) w/ 3 mM SDS,19%
same,β-sheet (DichroWeb CONTIN-LL),[1]; t = 5 h (300 min) w/ 3 mM SDS,43%
same,Random (Bestsel),[1]; t = 5 h w/ 3 mM SDS,39.3%
same,α-helix (Bestsel),[1]; t = 5 h w/ 3 mM SDS,6.7%
same,β-sheet (Bestsel),[1]; t = 5 h w/ 3 mM SDS,54%
same,Random (DichroWeb CONTIN-LL),[1]; t = 6 h (360 min) w/ 3 mM SDS,37%
same,α-helix (DichroWeb CONTIN-LL),[1]; t = 6 h (360 min) w/ 3 mM SDS,19%
same,β-sheet (DichroWeb CONTIN-LL),[1]; t = 6 h (360 min) w/ 3 mM SDS,44%
same,Random (Bestsel),[1]; t = 6 h w/ 3 mM SDS,40.1%
same,α-helix (Bestsel),[1]; t = 6 h w/ 3 mM SDS,8%
same,β-sheet (Bestsel),[1]; t = 6 h w/ 3 mM SDS,52%
same,Random (Bestsel),[1]; t = 24 h w/ 3 mM SDS,38%
same,Random (DichroWeb CONTIN-LL),[1]; t = 24 h w/ 3 mM SDS,24%
same,α-helix (Bestsel),[1]; t = 24 h w/ 3 mM SDS,8.4%
same,α-helix (DichroWeb CONTIN-LL),[1]; t = 24 h w/ 3 mM SDS,29%
same,β-sheet (Bestsel),[1]; t = 24 h w/ 3 mM SDS,53.6%
same,β-sheet (DichroWeb CONTIN-LL),[1]; t = 24 h w/ 3 mM SDS,47%
same,Random (Bestsel),[1]; w/o 3 mM SDS,51.5%
same,Random (DichroWeb CONTIN-LL),[1]; w/o 3 mM SDS,61%
same,α-helix (Bestsel),[1]; w/o 3 mM SDS,1.2%
same,α-helix (DichroWeb CONTIN-LL),[1]; w/o 3 mM SDS,4%
same,β-sheet (Bestsel),[1]; w/o 3 mM SDS,47.3%
same,β-sheet (DichroWeb CONTIN-LL),[1]; w/o 3 mM SDS,35%
same,Random (Bestsel),"[2]; pH 2, t = 0",44.4
same,Random (DichroWeb CONTIN-LL),"[2]; pH 2, t = 0",39%
same,α-helix (Bestsel),"[2]; pH 2, t = 0",18.5
same,α-helix (DichroWeb CONTIN-LL),"[2]; pH 2, t = 0",22%
same,β-sheet (Bestsel),"[2]; pH 2, t = 0",37
same,β-sheet (DichroWeb CONTIN-LL),"[2]; pH 2, t = 0",39%
same,Random (Bestsel),"[2]; pH 2, t = 24 hours",44.3
same,Random (DichroWeb CONTIN-LL),"[2]; pH 2, t = 24 hours",39%
same,α-helix (Bestsel),"[2]; pH 2, t = 24 hours",13.2
same,α-helix (DichroWeb CONTIN-LL),"[2]; pH 2, t = 24 hours",17%
same,β-sheet (Bestsel),"[2]; pH 2, t = 24 hours",42.5
same,β-sheet (DichroWeb CONTIN-LL),"[2]; pH 2, t = 24 hours",44%
same,Random (Bestsel),"[2]; pH 4, t = 0",52.4
same,Random (DichroWeb CONTIN-LL),"[2]; pH 4, t = 0",36%
same,α-helix (Bestsel),"[2]; pH 4, t = 0",7.7
same,α-helix (DichroWeb CONTIN-LL),"[2]; pH 4, t = 0",23%
same,β-sheet (Bestsel),"[2]; pH 4, t = 0",39.8
same,β-sheet (DichroWeb CONTIN-LL),"[2]; pH 4, t = 0",41%
same,Random (Bestsel),"[2]; pH 4, t = 24 hours",41.2
same,Random (DichroWeb CONTIN-LL),"[2]; pH 4, t = 24 hours",35%
same,α-helix (Bestsel),"[2]; pH 4, t = 24 hours",13.3
same,α-helix (DichroWeb CONTIN-LL),"[2]; pH 4, t = 24 hours",24%
same,β-sheet (Bestsel),"[2]; pH 4, t = 24 hours",45.5
same,β-sheet (DichroWeb CONTIN-LL),"[2]; pH 4, t = 24 hours",41%
same,Random (Bestsel),"[2]; pH 7, t = 0",45.4
same,Random (DichroWeb CONTIN-LL),"[2]; pH 7, t = 0",36%
same,α-helix (Bestsel),"[2]; pH 7, t = 0",15
same,α-helix (DichroWeb CONTIN-LL),"[2]; pH 7, t = 0",25%
same,β-sheet (Bestsel),"[2]; pH 7, t = 0",39.5
same,β-sheet (DichroWeb CONTIN-LL),"[2]; pH 7, t = 0",39%
same,Random (Bestsel),"[2]; pH 7, t = 24 hours",40.8
same,Random (DichroWeb CONTIN-LL),"[2]; pH 7, t = 24 hours",37%
same,α-helix (Bestsel),"[2]; pH 7, t = 24 hours",15.5
same,α-helix (DichroWeb CONTIN-LL),"[2]; pH 7, t = 24 hours",19%
same,β-sheet (Bestsel),"[2]; pH 7, t = 24 hours",43.8
same,β-sheet (DichroWeb CONTIN-LL),"[2]; pH 7, t = 24 hours",44%
same,Random (Bestsel),"[2]; pH 9, t = 0",44.4
same,Random (DichroWeb CONTIN-LL),"[2]; pH 9, t = 0",39%
same,α-helix (Bestsel),"[2]; pH 9, t = 0",13.7
same,α-helix (DichroWeb CONTIN-LL),"[2]; pH 9, t = 0",19%
same,β-sheet (Bestsel),"[2]; pH 9, t = 0",42
same,β-sheet (DichroWeb CONTIN-LL),"[2]; pH 9, t = 0",42%
same,Random (Bestsel),"[2]; pH 9, t = 24 hours",42.9
same,Random (DichroWeb CONTIN-LL),"[2]; pH 9, t = 24 hours",24%
same,α-helix (Bestsel),"[2]; pH 9, t = 24 hours",13.4
same,α-helix (DichroWeb CONTIN-LL),"[2]; pH 9, t = 24 hours",29%
same,β-sheet (Bestsel),"[2]; pH 9, t = 24 hours",43.8
same,β-sheet (DichroWeb CONTIN-LL),"[2]; pH 9, t = 24 hours",47%
same,Random (CONTIN-LL),[2]; Table 8: pH 2,39%
same,α-helix (CONTIN-LL),[2]; Table 8: pH 2,22%
same,β-sheet (CONTIN-LL),[2]; Table 8: pH 2,39%
same,Random (CONTIN-LL),[2]; Table 8: pH 4,36%
same,α-helix (CONTIN-LL),[2]; Table 8: pH 4,23%
same,β-sheet (CONTIN-LL),[2]; Table 8: pH 4,41%
same,Random (CONTIN-LL),[2]; Table 8: pH 7,36%
same,α-helix (CONTIN-LL),[2]; Table 8: pH 7,25%
same,β-sheet (CONTIN-LL),[2]; Table 8: pH 7,39%
same,Random (CONTIN-LL),[2]; Table 8: pH 9,39%
same,α-helix (CONTIN-LL),[2]; Table 8: pH 9,19%
same,β-sheet (CONTIN-LL),[2]; Table 8: pH 9,42%
